The source of these data is patent US20060229224A1, “Bleaching composition” (priority 2003, published 2006).

Values joined by “and” are separate entries in the source; they are usually repeats but may differ in a detail not shown here. Equal values may be shown once. “Also recorded” adds a separate entry of the source. Read-outs that look alike come from different tables or passages of the source.

In data set [1] the test system is 3T3. The data set can be described thus: In Vitro 3T3 NRU Photo-toxicity Test. Conditions: for Result: photo-toxicity classification.
Procedure: (§1) Photo-bleaches were tested for photo-toxicity using the Photo-toxicity-In Vitro 3T3 NRU Photo-toxicity Test” of the Commission Directive 2000/33/EC of 25 Apr.
A short description of data set [2]: Photo-bleaching of palm oil stained cotton cloths in wash followed by weatherometer irradiation. Conditions: staining relative to clean white cloth. Here is the method:
Palm oil stained cloths (Brazilian) were prepared as follows. Palm oil 0.06 g was added deposited onto individual woven white cotton cloth samples weighing 1.2 g each. The cloth samples were allowed to age for 1 hour before being washed. Each wash consisted of four stained cloths, 200 ml of 40° C. water and 1 g of Persil Colour-washing powder (purchased in UK, zeolite based). The wash liquor was agitated for 20 minutes then the clothes rinsed in cold water, wrung and irradiated in a weatherometer for 18 minutes. The weatherometer is designed to simulate outside line drying and was set to give 42 W/m2 in the UVA&B.
The washes were duplicated but with the addition of 9 ppm of the photo-bleach to the wash solution, corresponding to 0.18% by weight on the powder formulation.
After the wash/irradiation procedure the staining of the clothes relative to clean white cloth was measured on a reflectometer and expressed as the deltaE value.

Data set [3] concerns 3T3.
Procedure: as §1
[4] abbreviates: Table 3, PIF quoted to 2 significant figures.
The mark [5] stands for this setting: Example 1, 9 ppm photo-bleach in wash solution, 40° C. wash, irradiated 18 minutes in weatherometer.
The mark [6] stands for this setting: Example 2, same procedure as Example 1, 9 ppm photo-bleach.

Compound `Cc1cc(C)c(C(=O)c2ccccc2)c(C)c1` [2,4,6-trimethylbenzophenone] gave a PIF in the data set on 3T3 [1] (setting [4]) of 28. The Result entry in the data set on 3T3 [1] (Table 3) is reported as “Photo-toxic (PIF≧5 or MPE≧0.1)”. In addition, the “Average deltaE” value in data set [2] (setting [5]) worked out at 16.2.
On to `CN(C)CCCN1c2ccccc2Sc2ccc(Cl)cc21` [Chlorpromazine], for which the PIF with 3T3 [1] (setting [4]) came out at 43. Besides, the Result entry in the data set on 3T3 [1] (Table 3) is on record as “Photo-toxic (PIF≧5 or MPE≧0.1)”.
With 2-sulphate anthraquinone, in the data set with 3T3 [3], the PIF was over 170.
Take `CC1(C)[C@@H]2CC[C@@]1(C)C(=O)C2=O` [Camphoroquinone]: the “Average deltaE” value in data set [2] (setting [6]) is listed as 23.5.
`CCc1ccc2c(c1)C(=O)c1ccccc1C2=O` [2-ethylanthraquinone] displayed a PIF in the data set with 3T3 [1] (setting [4]) of over 1000. Besides, in the data set with 3T3 [1] (Table 3), the Result result is on record as “Photo-toxic (PIF≧5 or MPE≧0.1)”. In addition, the “Average deltaE” value in data set [2] (setting [5]) came out at 2.5.
`Cc1cc(C)c(C(=O)P(=O)(C(=O)c2c(C)cc(C)cc2C)c2ccccc2)c(C)c1` [Phenylbis(2,4,6-trimethylbenzoyl)-phosphine oxide] registered a PIF in the data set with 3T3 [1] (setting [4]) of over 12. Besides, the Result entry in the data set on 3T3 [1] (Table 3) is given as “Photo-toxic (PIF≧5 or MPE≧0.1)”.
For `CC(C)(O)C(=O)c1ccc(OCCO)cc1` [2-hydroxy-4′-hydroxyethoxy-2-methylpropiophenone] the same measures were over 120 and “Photo-toxic (PIF≧5 or MPE≧0.1)”.
With `O=C(c1ccccc1)C1(O)CCCCC1` [1-hydroxycyclohexylphenyl ketone], in the data set on 3T3 [3], the PIF is over 7.5.
Regarding `CC1=CC(=O)c2ccccc2C1=O` [Vitamin K3, 2-methyl-1,4-napthoquinone], in the data set with 3T3 [1], the photo-toxicity classification entry is “not photo-toxic; also recorded: non-photo-toxic”. In addition, the PIF is 2.3 with 3T3 [1] (setting [4]); 1.9 and 1.6 in the data set with 3T3 [1] (experiments repeated twice more). Moreover, the Result result with 3T3 [1] (Table 3) was “Non-photo-toxic (PIF<5 or MPE<0.1)”. Moreover, the “Average deltaE” value in data set [2] (setting [6]) is recorded as 2.9.
